Assay results: patent US5523297A, “Inhibition of excessive phospholipase A2 activity and/or production by non-antimicrobial tetracyclines” (The Research Foundation of State University of New York, priority 1995, dated 1996)
Like-named read-outs stand apart in the source and are kept apart here.

Assays:
Assay type in all cases: biochemical
[1] = target: T1, recombinant human PLA2 (snpPLA2) (Homo sapiens, UniProt P14555); experiment: Inhibition of recombinant human PLA2, radiolabelled E. coli assay
T1 sequence (P14555 21-144): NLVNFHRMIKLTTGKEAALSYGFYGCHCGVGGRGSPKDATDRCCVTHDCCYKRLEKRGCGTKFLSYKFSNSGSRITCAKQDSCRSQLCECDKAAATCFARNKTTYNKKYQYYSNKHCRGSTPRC
Experimental: (§1) Six different chemically-modified tetracyclines, including CMT-1 (4-dedimethylaminotetracycline), CMT-2 (tetracyclinonitrile), CMT-3 (6-demethyl-6-deoxy-4-dedimethylaminotetracycline), CMT-4 (4-de-dimethylamino-7-chloro-tetracycline), CMT-5 (pyrazole analog) and CMT-6 (4-hydroxy-4-dedimethylaminotetracycline), were examined for their ability to inhibit PLA2 activity in vitro. The sources of PLA2 that were tested included recombinant human PLA2, human pancreatic and porcine pancreatic PLA2 and Naja naja PLA2. […] Various concentrations of CMTs, ranging from 5-100 μg/ml, were preincubated with the different PLA2 enzymes for 30 minutes and the mixture was tested for PLA2 activity using a known E. coli assay method (see Arthritis and Rheumatism, 34 Supp. 9: p. S160 (abst C167)).
(§2) A chemically-modified tetracycline, 4-dedimethylamino-7-dimethylaminotetracycline (CMT-10), was examined for its ability to inhibit PLA2 activity in vitro. The sources of PLA2 that were tested included were recombinant human PLA2 (snpPLA2), human pancreatic and porcine pancreatic PLA2 and Naja naja PLA2. […] Various concentrations of CMT-10, ranging from 5-100 μg/ml, were preincubated with the different PLA2 enzymes for 30 minutes and the mixture was tested for PLA2 activity using a known E. coli assay method (see Arthritis and Rheumatism, 34 Supp. 9: p. S160 (abst C167)).
(§3) In particular, [^14 C]Oleic acid-labelled Escherichia coli (strain K12 C600) were used as the substrate. This substrate has been characterized with respect to phospholipid composition and distribution of radiolabel. Reaction mixtures contained 10 mg bovine serum albumin, 2 mM CaCl2, 2.8×10^8 radiolabelled E. coli and 0.1M Tris-HCl buffer, pH 7.5 in a total volume of 1.5 ml. Reaction mixtures were incubated at 37° C. for 30 min. The reaction was terminated by filtration through a 0.45 μm Millipore filter, thereby retaining unhydrolysed E. coli membranes, and allowing the [^14 C]oleic acid bound to the BSA carrier, released as a result of PLA2 hydrolysis, to pass through the filter. Assays were performed in duplicate and values shown represent the mean of two determinations with a SD<5% of the mean. Assays were performed in substrate excess and enzyme activities were corrected for non-enzymatichydrolysis. One unit of PLA2 activity is defined as the hydrolysis of 56 pmol of phospholipid substrate (representing 1% of total E. coli phospholipid) in 30 min at 37° C.

human pancreatic PLA2 = target: T2, human pancreatic PLA2 (Homo sapiens, UniProt P04054); experiment: Inhibition of human pancreatic PLA2, E. coli assay
T2 construct: radiolabelled E. coli membrane hydrolysis assay
T2 sequence (P04054 23-148): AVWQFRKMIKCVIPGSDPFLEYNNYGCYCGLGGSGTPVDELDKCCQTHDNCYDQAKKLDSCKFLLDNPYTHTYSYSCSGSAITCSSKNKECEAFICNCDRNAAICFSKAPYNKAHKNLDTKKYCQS
Experimental: as §1, §2, §3

porcine pancreatic PLA2 = target: T3, porcine pancreatic PLA2 (Sus scrofa, UniProt P00592); experiment: Inhibition of porcine pancreatic PLA2, E. coli assay
T3 construct: radiolabelled E. coli membrane hydrolysis assay
T3 sequence (P00592 23-146): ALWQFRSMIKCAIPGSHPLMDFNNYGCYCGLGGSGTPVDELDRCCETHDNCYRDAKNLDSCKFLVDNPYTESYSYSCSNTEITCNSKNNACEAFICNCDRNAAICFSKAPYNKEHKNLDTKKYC
Experimental: as §1, §2, §3

[2] = concentration required to inhibit 50% of PLA2, 30 min preincubation, read-out: IC50 (converted)
[3] = concentrations of 25 μg/ml or greater

Row | SMILES | inhibition of human pancreatic PLA2 (human pancreatic PLA2) | IC50 [1, 2] [µM] | PLA2-inhibitory activity [1, 3] | inhibition of porcine pancreatic PLA2 (porcine pancreatic PLA2) | further results
1 | CN(C)C1C(=O)C(C#N)=C(O)C2(O)C(=O)C3=C(O)c4c(O)cccc4C(C)(O)C3CC12 (centres unmarked) [CMT-2, tetracyclinonitrile] |  |  |  |  | PLA2-inhibitory activity ([1]; even at the highest concentrations tested (range 5-100 μg/ml)): lacked any PLA2 -inhibitory activity
2 | CN(C)c1ccc(O)c2c1C(C)(O)C1CC3CC(O)=C(C(N)=O)C(=O)C3(O)C(O)=C1C2=O (centres unmarked) [CMT-10, 4-dedimethylamino-7-dimethylaminotetracycline] | inhibit | 67.5 | significant PLA2 -inhibitory activity |  | inhibition at 30 µg/mL (human pancreatic PLA2; concentration of 30 μg/ml): 66%; inhibition at 5 µg/mL ([1]; CMT-10 5 μg/ml): 4 ± 4%; inhibition at 10 µg/mL ([1]; CMT-10 10 μg/ml): 12 ± 2%; inhibition at 25 µg/mL ([1]; CMT-10 25 μg/ml): 45 ± 1%; inhibition at 50 µg/mL ([1]; CMT-10 50 μg/ml): 75 ± 2%; inhibition at 100 µg/mL ([1]; CMT-10 100 μg/ml): 87 ± 2%; inhibition of PLA2 activity ([1]; final concentration of 5 and 10 μg/ml): did not exhibit substantial inhibition
3 | CC1(O)c2cccc(O)c2C(=O)C2=C(O)C3(O)C(=O)C(C(N)=O)=C(O)C(O)C3CC21 (centres unmarked) [CMT-6, 4-hydroxy-4-dedimethylaminotetracycline] | inhibit | 40.7 | significant PLA2 -inhibitory activity | inhibit | 
4 | CC1(O)c2cccc(O)c2C(=O)C2=C(O)C3(O)C(=O)C(C(N)=O)=C(O)CC3CC21 (centres unmarked) [CMT-1, 4-dedimethylaminotetracycline] | inhibit |  | significant PLA2 -inhibitory activity | inhibit | IC50 [1]: 92.2 µM
5 | NC(=O)C1=C(O)C2(O)C(=O)C3=C(O)c4c(O)cccc4CC3CC2CC1=O (centres unmarked) [CMT-3, 6-demethyl-6-deoxy-4-dedimethylaminotetracycline] | inhibit |  | significant PLA2 -inhibitory activity | inhibit | 
6 | CC1(O)c2c(Cl)ccc(O)c2C(=O)C2=C(O)C3(O)C(=O)C(C(N)=O)=C(O)CC3CC21 (centres unmarked) [CMT-4, 4-de-dimethylamino-7-chloro-tetracycline] | inhibit | 96.4 | significant PLA2 -inhibitory activity | inhibit | 
